Data on one molecule can be found in patent US6420317B1, “Benzoylpyrazoles and their use as herbicides” (Aventis CropScience GmbH, priority 2000, dated 2002).

Holding throughout (test): Post-emergence herbicidal action on harmful plants (greenhouse)
Assay type in all cases: in vivo
Holding throughout (conditions): 50 g a.i./ha, visual scoring after about 3 to 4 weeks

One assay relates to Stellaria media. The protocol: (§1) 1. Post-emergence herbicidal action on harmful plants
(§2) Seeds of monocotyledonous and dicotyledonous harmful plants are placed in sandy loam soil in cardboard pots, covered with soil and grown in a greenhouse under good growth conditions. Two to three weeks after sowing, the test plants are treated at the three-leaf stage. The compounds according to the invention which were formulated as wettable powders or emulsion concentrate are sprayed, at one of the dosages given in Tables 1 to 5, onto the surface of the green parts of the plants at an application rate of from 600 to 800 1 of water/ha (converted). After the test plants had remained in the greenhouse for about 3 to 4 weeks under optimum growth conditions, the effect of the preparations is scored visually by comparison with compounds disclosed in the prior art. As shown by the results of Comparative Tables 1 to 4, the selected compounds according to the invention have better herbicidal activity against a broad spectrum of economically important monocotyledonous and dicotyledonous harmful plants than the compounds disclosed in the prior art.

The subject of another assay is Chenopodium album. The protocol: as §1, §2
In the next assay the test system is Polygonum convolvulus. On the procedure: as §1, §2

Take `Cc1nn(C)c(O)c1C(=O)c1ccc(S(C)(=O)=O)cc1` [Compound S2]: the “Damage to the harmful plants in % STEME” value with Stellaria media worked out at 10%. The “Damage to the harmful plants in % CHEAL” value in the assay with Chenopodium album turned out to be 0%. In addition, the “Damage to the harmful plants in % POLCO” value in the assay with Polygonum convolvulus turned out to be 10%.
